Measured values taken from article PMC4391719 (PLoS ONE, 2015).
Where two headings read alike, the source gives them in different places. Where a SMILES comes first, the peptide text is derived from it. The star is where a group is joined. NODAGA = O=C(O)CN1CCN(CC(=O)O)CCN(C(CCC(=O)*)C(=O)O)CC1

Assays:
[1] = Biodistribution of ^111In-labelled fragments in CD1 nu/nu mice without tumours; format: in vivo, mouse; details: CD1 nu/nu, mouse, iv, 100 kBq, total radioactivity
Experimental: (§1) Biodistribution of ^111In-PSI-CLNOD1, ^111In-PSI-CLNOD2, ^111In-PSI-CLNOD3 and ^111In-Ex4NOD40 were performed in CD 1 nu/nu mice with tumour xenografts that were prepared as previously described. Six week-old female CD1 nu/nu mice were subcutaneously inoculated in both shoulder regions with 8 x 10^6 CHL-GLP-1R positive cells suspended in PBS pH 7.4. After 4 weeks, the mice were randomly divided into groups of four mice. For the ^111In-labelled fragments mice without tumours were used. The mice were injected with approximately 100 kBq (1–5 pmol) of the respective ^111In-labelled peptide diluted in PBS pH 7.4 with 0.1% BSA via the tail vein and sacrificed after 4 h by CO2 asphyxiation. […] Blood, heart, lungs, spleen, kidneys, pancreas, stomach, intestine, liver, muscle, bone and tumour were removed, weighted and activity determined in a γ-counter (Packard Cobra II Auto Gamma, Perkin Elmer, Switzerland). The percentage of injected activity per gram tissue (%iA/g) was calculated for each sample. The statistical significance was determined using the two-way ANOVA test and corrected for multiple comparisons using Tukey’s honest significance test. The data was log-transformed to account for the variance in the groups.

CD1 nu/nu mice = test: as above; format: in vivo, mouse; details: ^111In-labelled fragment ~100 kBq i.v. tail vein, mice without tumours, after 4 h
Experimental: as §1

meprin α = test: recombinant meprin α in meprin assay buffer (50 mM Tris-HCl pH 7.5 + 1 mM MgCl2 + 1 mM CaCl2) and 1 M Tris pH 7.5; details: 37°C, up to 60 min
meprin β = test: recombinant meprin β in meprin assay buffer (50 mM Tris-HCl pH 7.5 + 1 mM MgCl2 + 1 mM CaCl2) and 1 M Tris pH 7.5; details: 37°C, up to 60 min
[2] = in vivo, Biodistribution of fragment, Blood
[3] = in vivo, Biodistribution of fragment, Bone
[4] = in vivo, Biodistribution of fragment, Heart
[5] = in vivo, Biodistribution of fragment, Intestines
[6] = in vivo, Biodistribution of fragment, Kidneys
[7] = in vivo, Biodistribution of fragment, Liver
[8] = in vivo, Biodistribution of fragment, Lungs
[9] = in vivo, Biodistribution of fragment, Pancreas
[10] = in vivo, Biodistribution of fragment, Spleen
[11] = in vivo, Biodistribution of fragment, Stomach
[12] = in vivo, activity retained in the kidneys at the end of the experiment
[13] = blood, ^111In-labelled fragment ~100 kBq i.v. tail vein, mice without tumours, after 4 h, read-out: Biodistribution of fragment, Blood
[14] = intestines, ^111In-labelled fragment ~100 kBq i.v. tail vein, mice without tumours, after 4 h, read-out: Biodistribution of fragment, Intestines
[15] = kidneys, ^111In-labelled fragment ~100 kBq i.v. tail vein, mice without tumours, after 4 h, read-out: Biodistribution of fragment, Kidneys
[16] = kidneys, ^111In-labelled fragments, mice without tumours, 4 h after injection, summary in text of S3 Table, read-out: activity retained in the kidneys at the end of the experiment
[17] = liver, ^111In-labelled fragment ~100 kBq i.v. tail vein, mice without tumours, after 4 h, read-out: Biodistribution of fragment, Liver
[18] = lungs, ^111In-labelled fragment ~100 kBq i.v. tail vein, mice without tumours, after 4 h, read-out: Biodistribution of fragment, Lungs
[19] = spleen, ^111In-labelled fragment ~100 kBq i.v. tail vein, mice without tumours, after 4 h, read-out: Biodistribution of fragment, Spleen
[20] = stomach, ^111In-labelled fragment ~100 kBq i.v. tail vein, mice without tumours, after 4 h, read-out: Biodistribution of fragment, Stomach
[21] = in vivo, Biodistribution of fragment, Muscle

Compound	tissue uptake at 4 h [1, 2] [%ID/g]	tissue uptake at 4 h [1, 3] [%ID/g]	tissue uptake at 4 h [1, 4] [%ID/g]	tissue uptake at 4 h [1, 5] [%ID/g]	tissue uptake at 4 h [1, 6] [%ID/g]	tissue uptake at 4 h [1, 7] [%ID/g]	tissue uptake at 4 h [1, 8] [%ID/g]	tissue uptake at 4 h [1, 9] [%ID/g]	tissue uptake at 4 h [1, 10] [%ID/g]	tissue uptake at 4 h [1, 11] [%ID/g]	tissue uptake at 4 h [1, 12] [%ID/g]	fragment found (meprin α)	cleaved bond (meprin β)	also measured
CC(C)[C@H](NC(=O)[C@H](C)NC(=O)[C@H](CCC(=O)O)NC(=O)[C@@H](N)CCC(=O)O)C(=O)N[C@@H](CCCCNC(=O)CCC(C(=O)O)N1CCN(CC(=O)O)CCN(CC(=O)O)CC1)C(N)=O (stereo partly drawn) [CL1-F1] (H-EEAVK(NODAGA)-NH2)	0.01	0.05	0.01	0.22	2.28	0.07	0.03	0.01	0.03	0.02	< 4			
CC(C)[C@H](NC(=O)[C@H](C)NC(=O)[C@@H](N)CCC(=O)O)C(=O)N[C@@H](CCCCNC(=O)CCC(C(=O)O)N1CCN(CC(=O)O)CCN(CC(=O)O)CC1)C(N)=O (stereo partly drawn) [CL1-F2] (H-EAVK(NODAGA)-NH2)	0.01	0.06	0.02	0.1	2.97	0.08	0.04	0.01	0.03	0.02	< 4			
NC(=O)[C@@H](N)CCCCNC(=O)CCC(C(=O)O)N1CCN(CC(=O)O)CCN(CC(=O)O)CC1 (stereo partly drawn) [CL1-F3]		0.07	0.01	0.09	1.72	0.08	0.03	0.01	0.03	0.02	< 4			
CSCC[C@H](NC(=O)[C@H](Cc1ccc(O)cc1)NC(=O)[C@@H](N)CC(=O)O)C(=O)NCC(=O)N[C@@H](Cc1c[nH]c2ccccc12)C(=O)N[C@@H](CCSC)C(=O)N[C@@H](CC(=O)O)C(=O)N[C@@H](Cc1ccccc1)C(=O)N[C@@H](CCCCNC(=O)CCC(C(=O)O)N1CCN(CC(=O)O)CCN(CC(=O)O)CC1)C(N)=O (stereo partly drawn) [CL2-F1]														tissue uptake at 4 h [1, 13]: 0.02 %ID/g; tissue uptake at 4 h ([1]; bone, ^111In-labelled fragment ~100 kBq i.v. tail vein, mice without tumours, after 4 h, read-out: Biodistribution of fragment, Bone): 0.06 %ID/g; tissue uptake at 4 h ([1]; heart, ^111In-labelled fragment ~100 kBq i.v. tail vein, mice without tumours, after 4 h, read-out: Biodistribution of fragment, Heart): 0.02 %ID/g; tissue uptake at 4 h [1, 14]: 0.15 %ID/g; tissue uptake at 4 h [1, 15]: 2.5 %ID/g; tissue uptake at 4 h [1, 16]: < 4 %ID/g; tissue uptake at 4 h [1, 17]: 0.17 %ID/g; tissue uptake at 4 h [1, 18]: 0.04 %ID/g; tissue uptake at 4 h ([1]; pancreas, ^111In-labelled fragment ~100 kBq i.v. tail vein, mice without tumours, after 4 h, read-out: Biodistribution of fragment, Pancreas): 0.02 %ID/g; tissue uptake at 4 h [1, 19]: 0.07 %ID/g; tissue uptake at 4 h [1, 20]: 0.04 %ID/g; Biodistribution of fragment, Muscle (CD1 nu/nu mice): 0.00 %iA/g
NC(=O)[C@H](CCCCNC(=O)CCC(C(=O)O)N1CCN(CC(=O)O)CCN(CC(=O)O)CC1)NC(=O)[C@H](Cc1ccccc1)NC(=O)[C@@H](N)CC(=O)O (stereo partly drawn) [CL2-F2]	0.01	0.01	0.01	0.14	2.11	0.11	0.03	0.02	0.04	0.03	< 4			tissue uptake at 4 h [1, 21]: 0.01 %ID/g
NC(=O)[C@H](CCCCNC(=O)CCC(C(=O)O)N1CCN(CC(=O)O)CCN(CC(=O)O)CC1)NC(=O)[C@H](CO)NC(=O)[C@@H]1CCCN1C(=O)[C@@H]1CCCN1C(=O)[C@@H]1CCCN1C(=O)[C@H](CCC(=O)O)NC(=O)[C@@H](N)CC(=O)O (stereo partly drawn) [CL3-F1] (H-DEPPPSK(NODAGA)-NH2)														tissue uptake at 4 h [1, 13]: 0.01 %ID/g; tissue uptake at 4 h [1, 14]: 0.04 %ID/g; tissue uptake at 4 h [1, 15]: 1.71 %ID/g; tissue uptake at 4 h [1, 16]: < 4 %ID/g; tissue uptake at 4 h [1, 17]: 0.04 %ID/g; tissue uptake at 4 h [1, 18]: 0.02 %ID/g; tissue uptake at 4 h [1, 19]: 0.01 %ID/g; tissue uptake at 4 h [1, 20]: 0.01 %ID/g; Biodistribution of fragment, Heart (CD1 nu/nu mice): 0.00 %iA/g; Biodistribution of fragment, Muscle (CD1 nu/nu mice): -0.01 %iA/g; Biodistribution of fragment, Pancreas (CD1 nu/nu mice): 0.00 %iA/g

Second part, led by results:

tissue uptake at 4 h [1, 2] [%ID/g]	tissue uptake at 4 h [1, 3] [%ID/g]	tissue uptake at 4 h [1, 4] [%ID/g]	tissue uptake at 4 h [1, 5] [%ID/g]	tissue uptake at 4 h [1, 6] [%ID/g]	tissue uptake at 4 h [1, 7] [%ID/g]	tissue uptake at 4 h [1, 8] [%ID/g]	tissue uptake at 4 h [1, 9] [%ID/g]	tissue uptake at 4 h [1, 10] [%ID/g]	tissue uptake at 4 h [1, 11] [%ID/g]	tissue uptake at 4 h [1, 12] [%ID/g]	fragment found (meprin α)	cleaved bond (meprin β)	Compound	also measured
0.02	0.21	0.01	0.1	2.22	0.07	0.04	0.01	0.03	0.02	< 4			NC(=O)[C@H](CCCCNC(=O)CCC(C(=O)O)N1CCN(CC(=O)O)CCN(CC(=O)O)CC1)NC(=O)[C@H](CO)NC(=O)[C@@H]1CCCN1C(=O)[C@@H]1CCCN1C(=O)[C@@H]1CCCN1C(=O)[C@@H](N)CCC(=O)O (stereo partly drawn) [CL3-F2] (H-EPPPSK(NODAGA)-NH2)	tissue uptake at 4 h [1, 21]: 0.02 %ID/g
											IEW –K(natIn-NODAGA)	E-D and D-E	HGEGTFTSDLSKQNleEEEAVRLFIEWLKNGGPSEDEPPPSK(NODAGA)-NH2	cleaved bond (meprin α): D-E
											IEWL-DFK(natIn-NODAGA)-NH2	G-D and M-D	HGEGTFTSDLSKQNleEEEAVRLFIEWLKNGGPSSGDYMGWMDFK(NODAGA)-NH2	cleaved bond (meprin α): M-D and G-G
											IEW-AVK(natIn-NODAGA)-NH2	Nle-E and E-E and V-K(^natIn-NODAGA)	HGEGTFTSDLSKQNleEEEAVRLFIEWLKNGGPSSGQNleEEEAVK(NODAGA)-NH2	
